Drawing on patent publication US9856232B1, “Dihydropyrimidinone derivatives” (KING SAUD UNIVERSITY, priority 2017, dated 2018), this text covers melting point and inhibition in vivo for 11 compounds.

SMILES strings stand for the structures.

Series [1] concerns Gastric lesions induced by 80% ethanol. As to the kind of experiment: Gastric lesions induced by ethanol (ulcer index by severity scores). It is filed as in vivo, Albino Wistar rats. The note with it: Rattus norvegicus, po, vs 80% EtOH group, read-out: Gastric lesions induced by 80% ethanol, % change; for inhibition in vivo at 12.5 mg/kg: compound 12.5 mg/kg; for inhibition in vivo at 25 mg/kg: compound 25 mg/kg; for inhibition in vivo at 50 mg/kg: compound 50 mg/kg. The procedure: Albino Wistar rats of either sex, approximately the same age, weighing 150 to 200 g and fed on a diet of standard chow were used in this study. They were randomly divided into experimental groups of six rats each. Compounds (N-1 to N-18) 12.5, 25, and 50 mg/kg were given orally in the anti-ulcer studies and intraperitoneally for gastric secretion evaluation. The rats were sacrificed, and the stomachs removed and opened along the greater curvature, After washing with saline, the gastric lesions were quantified by a person unaware of the treatments. The animal study protocol was approved by the Research and Ethics Committee of the Experimental Animal Care Society, College of Pharmacy, King Saud University, Riyadh, Saudi Arabia.
Gastric lesions induced by ethanol: Albino rats of either sex weighing between (150-200 g) are divided into groups. The animals were fasted for 24 hours with free access to water. Animals were given test drugs or standard drug. One hour later 1 mL/200 gm of 80% ethanol is administered orally to each animal. The animals were anaesthetized 1 hour latter with anesthetic ether and stomach was incised along the greater curvature and ulceration was scored. The number of ulcers and the length of each ulcer were measured. Ulcer index was calculated using severity scores. The mucosal damage was examined by means of a magnifying glass. For each stomach the mucosal damage was assessed according to the following scoring system: 0.5 redness; 1.0 spot ulcers; 1.5 hemorrhagic streaks; 2.0 ulcers<3, but≦5; 3.0 ulcers>5. Table 1 provides the effect of compounds on gastric lesions induced by 80% ethanol (mean±SE).

Usually melting point stands for the temperature, or range, at which the solid turns liquid. Compound `O=C1NC=C(C(=O)c2ccc(N3CCCCC3)cc2)C(c2ccccc2)N1` (stereo not drawn) [Compound N-1, 4-Phenyl-5-[4-(piperidin-1-yl)benzoyl]-3,4-dihydropyrimidin-2(1H)-one] gave a melting point of 220 to 222 °C.
In turn, `O=C1NC=C(C(=O)c2ccc(N3CCCCC3)cc2)C(c2ccccc2[N+](=O)[O-])N1` (stereo not drawn) [Compound N-2, 4-(2-Nitrophenyl)-5-[4-(piperidin-1-yl)benzoyl]-3,4-dihydropyrimidine-2(1H)-one] returned a melting point of 190 to 192 °C. For the same compound, in series [1], the inhibition in vivo at 12.5 mg/kg is 14.2%, the inhibition in vivo at 25 mg/kg is 21.4% and the inhibition in vivo at 50 mg/kg was found to be 28.5%.
`O=C1NC=C(C(=O)c2ccc(N3CCCCC3)cc2)C(c2cccc([N+](=O)[O-])c2)N1` (stereo not drawn) [Compound N-4, 4-(3-Nitrophenyl)-5-[4-(piperidin-1-yl)benzoyl]-3,4-dihydropyrimidin-2(1H)-one] returned a melting point of 185 to 187 °C. In addition, the inhibition in vivo at 50 mg/kg in series [1] was 7.4%.
Compound `O=C1NC=C(C(=O)c2ccc(N3CCCCC3)cc2)C(c2ccc(Cl)cc2)N1` (stereo not drawn) [Compound N-5, 4-(4-Chlorophenyl)-5-[4-(piperidin-1-yl)benzoyl]-3,4-dihydropyrimidin-2(1H)-one] came in with a melting point of 230 to 232 °C. Also, in series [1], the inhibition in vivo at 25 mg/kg stood at 7.1% and the inhibition in vivo at 50 mg/kg was 10.7%.
As for `O=C1NC=C(C(=O)c2ccc(N3CCCCC3)cc2)C(c2ccc(Cl)cc2Cl)N1` (stereo not drawn) [Compound N-6, 4-(2,4-Dichlorophenyl)-5-[4-(piperidin-1-yl)benzoyl]-3,4-dihydropyrimidin-2(1H)-one], the melting point was in the range of 195 to 197 °C. For the same compound, in series [1], the inhibition in vivo at 25 mg/kg was 7.1% and the inhibition in vivo at 50 mg/kg is 10.7%.
In turn, `COc1ccc(C2NC(=O)NC=C2C(=O)c2ccc(N3CCCCC3)cc2)cc1OC` (stereo not drawn) [Compound N-7, 4-(3,4-Dimethoxyphenyl)-5-[4-(piperidin-1-yl)benzoyl]-3,4-dihydropyrimidin-2(1H)-one] gave a melting point of 145 to 147 °C. In series [1], the inhibition in vivo at 12.5 mg/kg worked out at 10%, the inhibition in vivo at 25 mg/kg was determined as 26.6% and the inhibition in vivo at 50 mg/kg came to 33.3%.
`O=C1NC=C(C(=O)c2ccc(N3CCCCC3)cc2)C(c2ccc(O)cc2)N1` (stereo not drawn) [Compound N-9, 4-(4-Hydroxyphenyl)-5-[4-(piperidin-1-yl)benzoyl]-3,4-dihydropyrimidin-2(1H)-one] returned a melting point of 210 to 212 °C. The inhibition in vivo at 25 mg/kg in series [1] stood at 2%.
In turn, `O=C1NC=C(C(=O)c2ccc(N3CCCCC3)cc2)C(c2cccc(O)c2)N1` (stereo not drawn) [Compound N-10, 4-(3-Hydroxyphenyl)-5-[4-(piperidin-1-yl)benzoyl]-3,4-dihydropyrimidin-2(1H)-one] returned a melting point of 190 to 192 °C. In series [1], the inhibition in vivo at 12.5 mg/kg worked out at 14%, the inhibition in vivo at 25 mg/kg turned out to be 17.8% and the inhibition in vivo at 50 mg/kg turned out to be 21.4%.
Compound `COc1cccc(C2NC(=O)NC=C2C(=O)c2ccc(N3CCCCC3)cc2)c1` (stereo not drawn) [Compound N-12, 4-(3-Methoxyphenyl)-5-[4-(piperidin-1-yl)benzoyl]-3,4-dihydropyrimidin-2(1H)-one] yielded a melting point of 160 to 162 °C. Further, in series [1], the inhibition in vivo at 25 mg/kg is 7.1% and the inhibition in vivo at 50 mg/kg is 10.7%.
The matching figures for `CCOc1ccc(C2NC(=O)NC=C2C(=O)c2ccc(N3CCCCC3)cc2)cc1` (stereo not drawn) [Compound N-13, 4-(4-Ethoxyphenyl)-5-[4-(piperidin-1-yl)benzoyl]-3,4-dihydropyrimidin-2(1H)-one]: 200 to 202 °C, 7.1% and 14.2%.
In turn, `COc1cc(OC)c(C2NC(=O)NC=C2C(=O)c2ccc(N3CCCCC3)cc2)cc1OC` (stereo not drawn) [Compound N-14, 4-(2,4,5-Trimethoxyphenyl)-5-[4-(piperidin-1-yl)benzoyl]-3,4-dihydropyrimiden-2(1H)-one] had a melting point of 155 to 157 °C. For the same compound, in series [1], the inhibition in vivo at 12.5 mg/kg worked out at 10.3%, the inhibition in vivo at 25 mg/kg came out at 27.5% and the inhibition in vivo at 50 mg/kg is 37.9%.
